Laboratory results from patent publication US20220096516A1, “OLIGONUCLEOTIDE MOLECULE AND APPLICATION THEREOF IN TUMOR THERAPY” (Ractigen Therapeutics, priority 2019, published 2022).
d = 2'-deoxy (DNA); r = 2'-OH (RNA)

System: LHPP gene
Assay: High-throughput screening of saRNAs targeting LHPP promoter: LHPP mRNA by one-step RT-qPCR in Huh7 cells
Type: cell-based, human
Settings: 10 nM saRNA, 72 hours, relative to control (Mock)
Protocol: Human liver cancer cell line Huh7 was cultured in DMEM medium (Gibco), containing 10% of calf serum (Sigma-Aldrich) and 1% of penicillin/streptomycin (Gibco). The cells were cultured at 5% CO2 and 37° C. According to the instructions provided by the manufacturer, RNAiMax (Invitrogen, Carlsbad, Calif.) was used to transfect small activating RNAs at a concentration of 10 nM (unless otherwise specified).
At the end of transfection, the media were discarded, and each well was washed with 150 μL of PBS once. After discarding the PBS, 50 μL of cell lysis buffer (Takara) was added to each well and incubated at room temperature for 5 min. 1 μL of the resulted cell lysis was taken from each well and analyzed by qPCR on an ABI 7500 fast real-time PCR system (Applied Biosystems) using a one-step TB Green™ PrimeScrip™ RT-PCR kit II (Takara, RR086A) Each transfection sample was repeatedly amplified in 3 replicate wells.
Reaction conditions were as follows: reverse transcription reaction (stage 1): 5 min at 42° C., 10 s at 95° C.; PCR reaction (stage 2): 5 s at 95° C., 20 s at 60° C., 45 cycles of amplification. HPRT1 and TBP were used as internal reference genes. PCR primers used for amplifying LHPP, HPRT1 and TBP genes are shown in Table 2, wherein LHPP was amplified using the LHPP F1/R1 primer pair.
To calculate the relative expression level (Erel) of LHPP (target gene) in an saRNA-transfected sample relative to control treatment (Mock), the Ct values of the target gene and the two internal reference genes were substituted into formula 1
Erel=2^(CtT^m^-CtT^s^)/((2^(CtR1^m^-CtR1^s^)*2^(CtR2^m^-CtR2^s^))^(1/2))
wherein CtTm was the Ct value of the target gene from the control (Mock) sample; CtTs was the Ct value of the target gene from the saRNA-treated sample; CtR1m was the Ct value of the internal reference gene 1 from the control (Mock) sample; CtR1s was the Ct value of the internal reference gene 1 from the saRNA-treated sample; CtR2m was the Ct value of the internal reference gene 2 from the control (Mock) sample; and CtR2s was the Ct value of the internal reference gene 2 from the saRNA-treated sample.
In order to obtain saRNAs capable of activating LHPP transcription, Huh7 cells were transfected with each of the aforementioned 290 saRNAs with a transfection concentration of 10 nM, and 72 hours later, according to the same method as described above, the cells were lysed and analyzed by one-step RT-qPCR to obtain the relative (compared with the control (Mock)) expression level of LHPP gene for each saRNA-treated sample. […] The observed maximum activation and maximum inhibition is 3.46 fold and 0.49 fold, respectively, saRNAs with activating activity are referred to as activating saRNAs, and the saRNAs with inhibiting activity are referred to as inhibiting saRNAs.

Substance | Fold of changes in relative LHPP mRNA expression level [fold] | Fold of changes in relative LHPP mRNA expression level (log2)
RAG7-107: saRNA duplex; sense AGAAAGCUUCCGAAAAGGATT (SEQ ID NO: 156), antisense UCCUUUUCGGAAGCUUUCUTT (SEQ ID NO: 320) (sugars from the 5' end r19 d2, backbone not given here) | 1.11 | 0.15
RAG7-109: saRNA duplex; sense GAAGAAAGCUUCCGAAAAGTT (SEQ ID NO: 90), antisense CUUUUCGGAAGCUUUCUUCTT (SEQ ID NO: 254) (sugars from the 5' end r19 d2, backbone not given here) | 1.24 | 0.31
RAG7-111: saRNA duplex; sense GGGAAGAAAGCUUCCGAAATT (SEQ ID NO: 117), antisense UUUCGGAAGCUUUCUUCCCTT (SEQ ID NO: 281) (sugars from the 5' end r19 d2, backbone not given here) | 1.18 | 0.24
RAG7-112: saRNA duplex; sense UGGGAAGAAAGCUUCCGAATT (SEQ ID NO: 82), antisense UUCGGAAGCUUUCUUCCCATT (SEQ ID NO: 246) (sugars from the 5' end r19 d2, backbone not given here) | 1.26 | 0.33
RAG7-113: saRNA duplex; sense CUGGGAAGAAAGCUUCCGATT (SEQ ID NO: 120), antisense UCGGAAGCUUUCUUCCCAGTT (SEQ ID NO: 284) (sugars from the 5' end r19 d2, backbone not given here) | 1.18 | 0.24
RAG7-114: saRNA duplex; sense CCUGGGAAGAAAGCUUCCGTT (SEQ ID NO: 73), antisense CGGAAGCUUUCUUCCCAGGTT (SEQ ID NO: 237) (sugars from the 5' end r19 d2, backbone not given here) | 1.28 | 0.36
RAG7-119: saRNA duplex; sense GAUCUCCUGGGAAGAAAGCTT (SEQ ID NO: 57), antisense GCUUUCUUCCCAGGAGAUCTT (SEQ ID NO: 221) (sugars from the 5' end r19 d2, backbone not given here) | 1.35 | 0.43
RAG7-120: saRNA duplex; sense UGAUCUCCUGGGAAGAAAGTT (SEQ ID NO: 141), antisense CUUUCUUCCCAGGAGAUCATT (SEQ ID NO: 305) (sugars from the 5' end r19 d2, backbone not given here) | 1.14 | 0.19
RAG7-121: saRNA duplex; sense CUGAUCUCCUGGGAAGAAATT (SEQ ID NO: 52), antisense UUUCUUCCCAGGAGAUCAGTT (SEQ ID NO: 216) (sugars from the 5' end r19 d2, backbone not given here) | 1.36 | 0.45
RAG7-122: saRNA duplex; sense GCUGAUCUCCUGGGAAGAATT (SEQ ID NO: 103), antisense UUCUUCCCAGGAGAUCAGCTT (SEQ ID NO: 267) (sugars from the 5' end r19 d2, backbone not given here) | 1.21 | 0.28
RAG7-123: saRNA duplex; sense CGCUGAUCUCCUGGGAAGATT (SEQ ID NO: 68), antisense UCUUCCCAGGAGAUCAGCGTT (SEQ ID NO: 232) (sugars from the 5' end r19 d2, backbone not given here) | 1.30 | 0.38
RAG7-125: saRNA duplex; sense UCCGCUGAUCUCCUGGGAATT (SEQ ID NO: 55), antisense UUCCCAGGAGAUCAGCGGATT (SEQ ID NO: 219) (sugars from the 5' end r19 d2, backbone not given here) | 1.36 | 0.44
RAG7-126: saRNA duplex; sense GUCCGCUGAUCUCCUGGGATT (SEQ ID NO: 45), antisense UCCCAGGAGAUCAGCGGACTT (SEQ ID NO: 209) (sugars from the 5' end r19 d2, backbone not given here) | 1.39 | 0.48
RAG7-128: saRNA duplex; sense UUGUCCGCUGAUCUCCUGGTT (SEQ ID NO: 111), antisense CCAGGAGAUCAGCGGACAATT (SEQ ID NO: 275) (sugars from the 5' end r19 d2, backbone not given here) | 1.20 | 0.26
RAG7-130: saRNA duplex; sense CUUUGUCCGCUGAUCUCCUTT (SEQ ID NO: 77), antisense AGGAGAUCAGCGGACAAAGTT (SEQ ID NO: 241) (sugars from the 5' end r19 d2, backbone not given here) | 1.28 | 0.36
RAG7-132: saRNA duplex; sense CUCUUUGUCCGCUGAUCUCTT (SEQ ID NO: 4), antisense GAGAUCAGCGGACAAAGAGTT (SEQ ID NO: 168) (sugars from the 5' end r19 d2, backbone not given here) | 1.86 | 0.90
RAG7-134: saRNA duplex; sense UGCUCUUUGUCCGCUGAUCTT (SEQ ID NO: 75), antisense GAUCAGCGGACAAAGAGCATT (SEQ ID NO: 239) (sugars from the 5' end r19 d2, backbone not given here) | 1.28 | 0.36
RAG7-137: saRNA duplex; sense UCCUGCUCUUUGUCCGCUGTT (SEQ ID NO: 151), antisense CAGCGGACAAAGAGCAGGATT (SEQ ID NO: 315) (sugars from the 5' end r19 d2, backbone not given here) | 1.12 | 0.16
RAG7-138: saRNA duplex; sense UUCCUGCUCUUUGUCCGCUTT (SEQ ID NO: 53), antisense AGCGGACAAAGAGCAGGAATT (SEQ ID NO: 217) (sugars from the 5' end r19 d2, backbone not given here) | 1.36 | 0.45
RAG7-139: saRNA duplex; sense UUUCCUGCUCUUUGUCCGCTT (SEQ ID NO: 7), antisense GCGGACAAAGAGCAGGAAATT (SEQ ID NO: 171) (sugars from the 5' end r19 d2, backbone not given here) | 1.73 | 0.79
